Results: patent publication US20130102683A1, “MELT-GRANULATED FINGOLIMOD” (RATIOPHARM GMBH, priority 2010, published 2013)
Counter-ions that a name gives are not always drawn.

Assay: Water adsorption of fingolimod salts under set atmospheric humidity (hygrostat)
Format: physicochemical
Settings: atmospheric humidity set at 75% by means of a hygrostat; after 2 weeks
Source text: In addition, experiments on various salts of fingolimod have shown that depending on the ambient conditions, the possibility of water adsorption exists. […] Water adsorption on this scale is detrimental to the storage stability of dosage forms containing fingolimod, especially in the case of tablets, granules or powders.

CCCCCCCCc1ccc(CCC(N)(CO)CO)cc1 [hydrochloride of fingolimod]
increase of water content: 7 fold
